# From patent publication US5854250A, “N-benzoylamino acid derivatives, pharmaceutical compositions containing them and process of preparing same” (Gyogyszerkutato Intezet KFT, priority 1997, dated 1998)
# Legend:
# small intestine section = assay: ischaemic intestine injury in rats; type: in vivo, Male CFY rats; settings: Rattus norvegicus; 25 mg/kg oral, 2 hours before the operation; read-out: Inhibition of ischaemia (%)
# Experimental: A) Effect of compounds of the general formula (I) on the ischaemic intestine injury in rats
# The method of D. A. Parks et al. [Surgery 92, 869 (1985)] was employed in these experiments.
# Male CFY rats with an average body-weight of 250 g were starved for 24 hours before the surgical intervention but water was allowed ad libitum. The compound to be tested was orally administered in a 25 mg/kg dose by 2 hours before the operation.
# The abdominal wall was opened along the median line under ether anaesthesia. The appropriate small intestine section was made ischaemic by ligating both small branches belonging to the pancreatico-duodenal artery. The shame-operated control animals were subjected only to the surgical intervention but their blood vessels were not ligated. The wound was closed and after 2 hours the abdominal cavity of the animals was again opened under ether anaesthesia. The thickened intestinal section was removed, its length and weight were determined and the significance was calculated by Duncan's test [D. B. Duncan: Biometrics 11, 1 (1955)] (with the weights corrected for a length of 20 mm) on the one hand, between the sham-operated and ischaemized vehicle-control animals; and on the other hand, between the ischaemized control animals and ischaemized animals treated with the compound to be tested. The edema-induced weight increase in the intestinal section was expressed as percentage.
# [1] = acute oral toxicity in rats; settings: rat, in vivo
# Description: The toxicity of the compounds according to the invention was studied in rats.
# [2] = test system: dopamine level of corpus striatum; assay: neurotoxicity-inhibiting effect in mice (MPTP-induced dopamine depletion); type: in vivo, Male C-57 mice; settings: for Dopamine level: then 50 mg/kg
# Experimental: C) Study on the neurotoxicity-inhibiting effect in mice This study was carried out by using the method of R. E. Heikkila at al. [Science 224, 1451 (1984)] or by some modification of this method being very suitable to investigate compounds which are potentially active against Parkinson's disease. […] MPTP). […] One hour after the last administration, 40 mg/kg of MPTP and then an additional amount of 50 mg/kg of the compound to be tested were intraperitoneally administered. The animals were killed after 4 days, their brain was removed and the corpus striatum was separated. The dopamine level of corpus striatum was determined by high performance liquid chromatography (HPLC).
# [3] = test system: reperfusion-induced arrhythmia; assay: reperfusion-induced arrhythmia in rats; type: in vivo, male SPRD rats; settings: for Average duration of VT/VF: one hour before, S ± SE/min
# Experimental: B) Investigations on the model of reperfusion-induced arrhythmia in rats
# In these experiments, the reperfusion-induced arrhythmia was developed in male SPRD rats weighing 400 g in average by using the method Lamontagne et al. [Fundam. Clin. Pharmacol. 3, 671 (1989)].
# The chest of artificially respirated animals was opened under pentobarbital anaesthesia and a thread was implanted under the left coronary. After an equilibration period of 15 minutes, in the case of an arterial blood pressure of at least 60 Hgmm, a myocardial ischaemia was induced by ligating the coronary for 5 minutes. This was followed by a reperfusion lasting for 10 minutes. The duration of arrhythmia, ventricular tachycardia (VT) and ventricular fibrillation (VF), respectively, developed within 3 minutes after reperfusion were registered in a lead-II ECG.
# The average durations of VT and VF, respectively related to 1 minute were determined and the number of deaths induced by arrhythmia was also registered.
# The compound to be tested was orally administered one hour before the experiment.
# The statistical data were calculated by using Duncan's test (duration of VT and VF, respectively) or the chi^2 test (number of deaths) [S. Bolton in: "Pharmaceutical Statistics", pages 169-173 (1990), Marcel Dekkar] following the variance analysis in relation to the vehicle control.
# arachidonic acid = assay: iron(II)-dependent peroxidation of arachidonic acid; type: biochemical; settings: 37° C., in methanol; iron(II) initiated; thiobarbituric acid-reactive products, 535 nm; read-out: IC50 on arachidonic acid substrate
# Experimental: A) The effect of compounds of general formula (I) on the iron(II)-dependentperoxidation of arachidonic acid
# The peroxidation of arachidonic acid was measured by using the method of J. M. Braughler [J. Biol. Chem. 262, 10438 (1986)] at 37° C. in methanol. The compound to be tested was investigated at various concentrations. The peroxidation was initiated by adding 10^-4 mol of iron(II) (ferrous) ion (to result in a final volume of 0.5 ml).
# (§1) The thiobarbituric acid-reactive products were determined by a modification of J. A. Buege [Meth. Enzymology 52, 302 (1978)] as follows. 0.55 ml of 2% thiobarbituric acid was added to the solution and the samples were boiled for 20 minutes. After cooling down, the samples were diluted with distilled water, then chloroform was added. After centrifuging the tubes at 400×g for 7 minutes, the quantity of the thiobarbituric acid-reactive products was determined in the supernatant by spectrophotometry at 535 nm. The effect of the compound to be tested was characterized by its IC50 value (i.e. the concentration resulting in an 50% inhibition). α-Tocopherol was used as reference compound.
# brain homogenate = assay: iron(II) ion-dependent peroxidation of brain homogenate; type: biochemical, OFA rats; settings: rat brain homogenate in Krebs buffer; iron(II) initiated
# Experimental: as §1
# B) The effect of compounds of general formula (I) on the iron(II) ion-dependent peroxidation of brain homogenate
# The measurement was carried out by using the method of J. M. Braughler [J. Biol. Chem. 262, 10438 (1987)].
# In these experiments OFA rats with a body-weight of 150-200 g were decapitated and brain homogenates were prepared in Krebs buffer solution, then the Method A) was followed.
# brain microsomes = assay: NADPH-dependent peroxidation of brain microsomes; type: biochemical, OFA rats; settings: rat brain microsomes, pH 6.8, 15 minutes, read-out: IC50 on brain microsome
# Experimental: C) The effect of compounds of general formula (I) on the NADPH-dependent peroxidation of brain microsomes
# This study was carried out by using the method of T. J. Player and A. A. Morton [J. Neurochem. 37, 422 (1981)].
# OFA rats of 3 months age were decapitated and their whole brain was homogenized in ice-cold 0.25M saccharose solution. After centrifuging the homogenate at 15000×g for 10 minutes, the supernatant was decanted and the residue was further centrifuged at 78000×g for 60 minutes. The preparation having a concentration of 10-20 mg of protein/ml was divided to aliquots.
# 2) Measurement of the microsomal lipid peroxidatiorn
# The measurement was carried out at […] in a reaction mixture with the following composition; 0.05M Tris maleate (pH 6.8) buffer, 1.0 mM KH2 SO4, 1.0 mM ADP, 0.2 mM FeCl3 and 0.4 mM NAOPH. NAOPH was not added to the reaction mixture used for determination of the baseline activity. The reaction was initiated […] by adding 0.5 mg of membrane protein and stopped after incubation for 15 minutes. Subsequently, the samples were centrifuged at 950×g for 20 minutes. The thiobarbituric acid-reactive products were determined in 1 ml of supernatant each by using the method of Z. Dunied [Biochem. Pharmacol. 32, 2283 (1983)].
# [4] = cited from earlier work
# lipid peroxidation = settings: J. M. Braughler et al.; cited from earlier work
# [5] = test system: heart-damaging effect of vasopressin; settings: G. Razzaboni et al.; cited from earlier work
# [6] = with MPTP treatment (+), 40 mg/kg, compound 100 mg/kg i.p. once daily for 3 days, a p < 0.01, b p < 0.05 vs MPTP control
# [7] = without MPTP treatment (-), 100 mg/kg i.p. once daily for 3 days
SMILES,inhibition in vivo at 25 mg/kg (small intestine section) [%],LD50 [1] [mg/kg],IC50 (arachidonic acid) [µM],IC50 (brain homogenate) [µM],IC50 (brain microsomes) [µM],other results
"COC(=O)CCCNC(=O)c1cc(O)ccc1O [Example 40, methyl 4-[N-(2,5-dihydroxybenzoyl)amino]butanoate]",72,,,,,
"O=C(O)CCCNC(=O)c1cc(O)ccc1O [Example 36, 4-[N-(2,5-dihydroxybenzoyl)amino]butyric acid]",76,> 1000,3.4,100,100,"Dopamine level, % of control ([2]; with MPTP treatment (+)): 33%; Dopamine level [2, 6]: 6,68 ± 1,0 μg/g tissue; Dopamine level, % of control ([2]; without MPTP treatment (-)): 103%; Dopamine level [2, 7]: 20,67 ± 0,5 μg/g tissue; No. of deaths (lethal VT/VF) ([3]; 50 mg/kg p.o.): 4/8; Average duration of VT/VF ([3]; 50 mg/kg p.o.): 33.0 ± 9.9 S/min; Average duration of VT/VF ([3]; 100 mg/kg p.o., **p < 0.01): 20.6 ± 6.3 S/min; No. of deaths (lethal VT/VF) ([3]; 100 mg/kg p.o., *p < 0.05): 0/10"
"CCOC(=O)CCCCCCCCCCNC(=O)c1cc(O)ccc1O [Example 31, ethyl 11-[N-(2,5-dihydroxybenzoyl)amino]undecanoate]",,,100,16,6.6,
C[C@@H]1C[C@H]2[C@@H]3CCC4=CC(=O)C=C[C@]4(C)C3=CC[C@]2(C)[C@H]1C(=O)CN1CCN(c2cc(N3CCCC3)nc(N3CCCC3)n2)CC1 [Example U74006F],,,,,,in vivo activity [4]: proven; inhibition of lipid peroxidation (lipid peroxidation): strongly inhibited
O=C(O)CCCCNC(=O)c1cc(O)ccc1O [Example 37],73,> 1000,31,100,100,
"COC(=O)CCCCCNC(=O)c1cc(O)ccc1O [Example 41, Methyl 6-{[N-(2,5-dihydroxybenzoyl)amino]hexanoate}]",75,,,,,
O=C(NCCCCCC(=O)N1CCN(CCCc2ccccc2)CC1)c1cc(O)ccc1O [Example 34],,,100,40,8.6,
O=C(O)CCCCCCCCCCCNC(=O)c1cc(O)ccc1O [Example 24],63,> 1000,40,4.8,37,"Dopamine level, % of control ([2]; with MPTP treatment (+)): 24%; Dopamine level [2, 6]: 4,85 ± 1,7 μg/g tissue; Dopamine level, % of control ([2]; without MPTP treatment (-)): 102%; Dopamine level [2, 7]: 20,44 ± 0,6 μg/g tissue"
O=C(NCCCCCC(=O)N1CCCC1=O)c1cc(O)ccc1O [Example 30],70,,,,,
"Cc1c(C)c2c(c(C)c1O)CCC(C)(CCCC(C)CCCC(C)CCCC(C)C)O2 (stereo not drawn) [α-Tocopherol, reference compound]",,,1.5,7,> 100,"Average duration of VT/VF ([3]; 100 mg/kg p.o., **p < 0.01): 33.1 ± 7.1 S/min; No. of deaths (lethal VT/VF) ([3]; 100 mg/kg p.o., *p < 0.05): 4/8; Average duration of VT/VF ([3]; 250 mg/kg p.o., **p < 0.01): 27.2 ± 7.1 S/min; No. of deaths (lethal VT/VF) ([3]; 250 mg/kg p.o., *p < 0.05): 1/8"
O=C(NCCCCCC(=O)N1CCN(c2cc(N3CCCC3)nc(N3CCCC3)n2)CC1)c1cc(O)ccc1O [Example 35],63,> 1000,27,3.3,5.3,
O=C(O)CCCCCNC(=O)c1cc(O)ccc1O [Example 25],61,> 1000,15,100,100,"No. of deaths (lethal VT/VF) ([3]; 50 mg/kg p.o.): 4/8; Average duration of VT/VF ([3]; 50 mg/kg p.o.): 37.3 ± 5.7 S/min; Average duration of VT/VF ([3]; 100 mg/kg p.o., **p < 0.01): 28.0 ± 5.1 S/min; No. of deaths (lethal VT/VF) ([3]; 100 mg/kg p.o., *p < 0.05): 1/10"
CCCCCCCCNC(=O)CCCCCNC(=O)c1cc(O)ccc1O [Example 29],52,> 1000,100,9,4.5,
CCOC(=O)CCCCCCCCCCCNC(=O)c1cc(O)ccc1O [Example 32],,,100,12,7.9,
COc1cc(C(=O)NCCCCCC(=O)O)ccc1O [6-(4-hydroxy-3-methoxybenzoyl)aminohexanoic acid],,,,,,activity against the heart-damaging effect of vasopressin [5]: inactive
